For four compounds, IC50 results are on record in ChEMBL document CHEMBL1131967, “BN 80927: a novel homocamptothecin with inhibitory activities on both topoisomerase I and topoisomerase II” (Bioorg Med Chem Lett, 1999).

What all share (assay type): functional, cell-based
One assay deals with HT-29. Kind of assay: Antiproliferative activity against human HT-29 colon cell line.
A further assay deals with DU-145. Kind of assay: Antiproliferative activity against human DU145 prostate cell line.
The test system of a further assay is SK-OV-3. Kind of assay: Antiproliferative activity against human SKOV-3 ovarian cell line.
A further assay has as its system MCF7. Kind of assay: Antiproliferative activity against human MCF-7 breast cell line.

A word on the IC50: it is the concentration that gives 50% inhibition. Lower therefore signals greater potency.

On to `CN(C)CCNC(=O)c1cccc2cc3ccccc3nc12`, for which the half-maximal inhibitory concentration (IC50) in the assay with HT-29 is over 10000 nM; with DU-145, 2300 nM; with SK-OV-3, 2400 nM; in the assay with MCF7, 3800 nM.

Consider `CCc1c2c(nc3ccc(O)cc13)-c1cc3c(c(=O)n1C2)COC(=O)[C@]3(O)CC` [7-ETHYL-10-HYDROXYCAMPTOTHECIN], for which the half-inhibitory concentration (IC50) in the assay with HT-29 came to 22 nM; in the assay on DU-145 it was 13 nM; in the assay on SK-OV-3, 720 nM; in the assay on MCF7, 370 nM.

`COc1cc([C@@H]2c3cc4c(cc3[C@@H](O[C@@H]3O[C@@H]5CO[C@@H](C)O[C@H]5[C@H](O)[C@H]3O)[C@H]3COC(=O)[C@H]23)OCO4)cc(OC)c1O` [ETOPOSIDE]: the IC50 with HT-29 was 200 nM; with DU-145 it was 1300 nM; with SK-OV-3, 4900 nM; in the assay on MCF7, 100000 nM.

On to `Cc1cnc(NCCCN(C)C)c2c1[nH]c1ccc3cc(O)ccc3c12` [INTOPLICINE], for which the IC50 in the assay with HT-29 was 890 nM; with DU-145, 560 nM; with SK-OV-3, 450 nM; in the assay on MCF7 it was 1000 nM.
